In one series the test system is human hepatocytes. The series is described as follows: Metabolism and metabolite formation in hepatocytes. Particulars: human hepatocytes, 10 µM BPI-460372, 4 h incubation.
Series [1] in a line: Metabolite identification in dog plasma. The settings on record: oral 8 mg/kg BPI-460372, average of male and female pooled samples. Type of series: in vivo, beagle dogs. The procedure:
The plasma samples were acquired from SD rats (n=6, 3 female and 3 male) and beagle dogs (n=6, 3 female and 3 male) after administration of 12 mg/kg and 8 mg/kg of BPI-460372, respectively. The rat urine, feces, and bile samples were acquired in SD rats after administration of 6 mg/kg of BPI-460372.
Equal volume from each rat was pooled together to get 1 male and 1 female 0-24 h plasma samples. An equal percentage by volume of individual urine sample (0-8, 8-24, and 24-48 h) from 3 female and 3 male rats was pooled by time interval across rats, respectively, resulting in two pooled urine samples (1 male and 1 female). An equal percentage by weight of individual feces samples (0-8, 8-24, and 24-48 h) was pooled by time interval across female and male rats, resulting in two pooled fecal samples. An equal percentage by volume of individual bile samples (0-4, 4-8, 8-24, and 24-48 h) was pooled by time interval across female and male rats, resulting in two pooled bile samples. […] Equal volumes from 3 female and 3 male rats were pooled together to get two 0-48 h plasma samples. For blank samples of plasma, urine, and bile, equal volume was pooled across subjects. For a blank sample of feces, equal weight was pooled across rats.
The pooled plasma, feces, and bile samples were extracted by adding 3-fold volume of acetonitrile, and the mixture was vortexed (1 min) and sonicated (1 min) before centrifugation (7220 g, 5 min). The pooled urine samples were centrifuged (7220 g, 5 min). Then the supernatant was transferred into a clean tube and evaporated to dryness under the nitrogen stream. The residues were redissolved with an appropriate volume of acetonitrile/water (20: 80, v: v). After centrifugation, the redissolved solution was transferred into an HPLC vial for UHPLC-Orbitrap-HRMS (15000 g, 10 min, 4°C).

The test system of a further series is CYP2C19. In words: Metabolic stability in HLMs with or without specific CYP inhibitor (ticlopidine 200 µM). Type of series: in vitro ADME, human. The settings on record: HLMs 1 mg protein/mL, substrate 1 μM. The protocol: Before starting the experiments, the HLMs were thawed gently on ice. Metabolic stability incubations were performed at 37 °C. […] The incubation process started with the addition of NADPH (1 mM final concentration) after a 5-minute preincubation period. The chemical inhibitors were as follows: a-naphthoflavone (2 µM) for CYP1A2, ticlopidine (20 µM) for 2B6, quercetin (20 µM) for CYP2C8, sulfaphenazole (20 µM) for CYP2C9, ticlopidine (200 µM) for CYP2C19, quinidine (20 µM) for CYP2D6, and ketoconazole (20 µM) for CYP3A [9]. Aliquots were maintained in acetonitrile containing internal standard (IS) at various time points, such as 0 min, 5 min, 10 min, 20 min, 30 min, and 60 min. All incubations were performed in triplicate, and the concentration in the supernatant was determined by liquid chromatography-tandem mass spectrometry (LC-MS/MS).
(§1) The elimination rate constant k (min^-1) was obtained by linear regression from the natural logarithm of the […] of the parent drug and the incubation time. The inhibition rate was calculated using equation 1 [10]: […]

Series [2] can be described thus: Stability in plasma. Particulars: mouse plasma, 37°C, 4 h. Type of series: in vitro ADME.
Series [3] is described as follows: Stability in plasma. The settings on record: monkey plasma, 37°C, 4 h. Type of series: in vitro ADME.
The next series deals with CYP3A4. In words: Metabolic stability in HLMs with or without specific CYP inhibitor (ketoconazole). Type of series: in vitro ADME, human. The settings on record: HLMs 1 mg protein/mL, substrate 1 μM, ketoconazole 20 µM. The protocol: Before starting the experiments, the HLMs were thawed gently on ice. Metabolic stability incubations were performed at 37 °C. The incubations contained 100 mM phosphate buffer saline (PBS, pH 7.4), HLMs (1 mg protein·mL^-1), dimethyl sulfoxide (DMSO, blank control) or a selective CYP inhibitor, and BPI-460372 or positive control substrates (final incubation concentration, 1 μM). The incubation process started with the addition of NADPH (1 mM final concentration) after a 5-minute preincubation period. The chemical inhibitors were as follows: a-naphthoflavone (2 µM) for CYP1A2, ticlopidine (20 µM) for 2B6, quercetin (20 µM) for CYP2C8, sulfaphenazole (20 µM) for CYP2C9, ticlopidine (200 µM) for CYP2C19, quinidine (20 µM) for CYP2D6, and ketoconazole (20 µM) for CYP3A [9]. Aliquots were maintained in acetonitrile containing internal standard (IS) at various time points, such as 0 min, 5 min, 10 min, 20 min, 30 min, and 60 min. All incubations were performed in triplicate, and the concentration in the supernatant was determined by liquid chromatography-tandem mass spectrometry (LC-MS/MS).
as §1

Method for human hepatocytes: 10 µM BPI-460372 was incubated in five species (human, cynomolgus monkey, beagle dog, SD rat, and ICR mouse) hepatocytes (1 × 10^6 cells·min^-1) at 37 °C for 4 h. 7-EC, as positive control, was incubated for 0 h and 4 h. For blank control, hepatocytes were inactivated by adding ice-cold acetonitrile, and then the BPI-460372 solution was added. All the samples were duplicates. Incubations were stopped using the same volume of cold acetonitrile. The tube was vortexed, and the duplicate samples were combined. Metabolite profiling and identification of BPI-460372 were conducted by using UHPLC-Orbitrap-HRMS. The samples of 7-EC were analyzed by LC-MS/MS and then semi-quantified using the peak area ratio of analyte versus IS.
For hepatocyte metabolite identification, the different metabolites of BPI-460372 were detected using an ACQUITY UPLC HSS T3 column (1.8 µm, 100 mm × 2.1 mm) and ACQUITY UPLC BEH C18 column (1.7 µm, 100 mm × 2.1 mm) for rat and dog metabolite identification. The mobile phase contained a mixture of 0.1% formic acid in water (A) and 0.1% formic acid in acetonitrile (B). The gradient elution program was as follows: 0.0-1.0 min, 5% B; 1.0-7.0 min, 5%-30% B; 7.0-12.0 min, 30%-80% B; 12.0-16.0 min, 80%-95% B; 16.0-18.0 min, 95% B; 18.0-18.1 min, 95%-5% B. Then, 5% B from 18.1 to 20.0 min was maintained for equilibration. The flow rate was set to 0.5 mL/min, and the column temperature was kept at 40°C. Eluted fractions were monitored by a UV detector at 314 nm.

Regarding `C=C(F)C(=O)N1CC(n2c(=O)n(-c3ccc(C(F)(F)F)cc3)c3nccnc32)C1` [BPI-460372], the “UV (314 nm) Peak Areas Relative Abundance” value with human hepatocytes came out at 76.96%. In series [1], the “Relative abundance of MS peak areas, Dog Plasma 0-48 h” value stood at 30.93%. For the same compound, the “Inhibition Rate” value in the series with CYP2C19 is reported as -4.2%; with CYP3A4 it was 9.1%. Besides, the Stability in plasma entry in the series “Stability in plasma [2]” and in “Stability in plasma [3]” was “stable” each time.

For the origin of these results see paper PMC12376128, “In vitro and In Vivo Drug Metabolism Analysis of BPI-460372 - A Covalent TEAD1/3/4 Inhibitor” (Current Drug Metabolism, 2025).
